Where two headings read alike, the source gives them in different places.

Data set [1] is described as follows: HPLC-based logD determination. In kind it is physicochemical. The note with it: RP-HPLC, reference compounds. The protocol:
The distribution coefficients of [^18F]1 and [^18F]2 were also calculated from RP-HPLC retention times in three different systems: (1) isocratic elution (60% MeCN/20 mM NH4OAc at a flow rate of 1 mL/min) and (2) gradient elution (starting from 10% MeCN/20 mM NH4OAc aq. for 10 min with a gradient to 90% MeCN/20 mM NH4OAc aq. over 30 min at a flow rate of 1 mL/min) on a Reprosil-Pur C18-AQ column (5 μm, 250 × 4.6 mm, Dr. Maisch HPLC GmbH, Ammerbruch-Entringen, Germany), and (3) isocratic elution (52.5% MeCN/20 mM NH4OAc at a flow rate of 1 mL/min) on a Prodigy 5 μm C8 (250 × 4 mm; Phenomenex Ltd, Aschaffenburg, Germany) using the reference compounds following the protocol according to the EU guideline 67/548/EWG [44].

In another data set the target is human CB2R (Homo sapiens, UniProt P34972). Description: In vitro CB receptor affinity assay, displacement of [3H]CP55,940, CHO cells transfected with human CB2R. In kind it is binding. As for the experimental part:
(§1) For binding experiments, Chinese hamster ovary (CHO) cell lines stably transfected with human CB1R human and CB2R were used according to the procedures previously described. […] The binding experiments were performed in triplicates, and data were given as mean values from independent experiments.
On the technique in general: In a radioligand displacement assay an active substance lowers the binding of a labelled ligand.

For another data set, the target named is human CB1R (Homo sapiens, UniProt P21554). Description: In vitro CB receptor affinity assay, displacement of [3H]CP55,940, CHO cells transfected with human CB1R. In kind it is binding. The protocol:
as §1

Where [2] appears, read: [3H]CP55,940 displacement, hCB1R CHO cells, read-out: Ki CB1R.

Chain of human CB2R (P34972 whole entry): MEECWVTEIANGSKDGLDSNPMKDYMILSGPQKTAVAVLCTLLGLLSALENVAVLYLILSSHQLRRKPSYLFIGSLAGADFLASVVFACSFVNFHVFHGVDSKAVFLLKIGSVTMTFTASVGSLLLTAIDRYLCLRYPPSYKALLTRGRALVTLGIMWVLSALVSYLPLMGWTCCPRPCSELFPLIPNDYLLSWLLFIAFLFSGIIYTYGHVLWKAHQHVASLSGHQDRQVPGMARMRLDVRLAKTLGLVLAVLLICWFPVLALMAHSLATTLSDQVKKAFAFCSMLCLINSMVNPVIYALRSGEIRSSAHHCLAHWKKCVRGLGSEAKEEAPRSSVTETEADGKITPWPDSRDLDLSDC
Chain of human CB1R (P21554 whole entry): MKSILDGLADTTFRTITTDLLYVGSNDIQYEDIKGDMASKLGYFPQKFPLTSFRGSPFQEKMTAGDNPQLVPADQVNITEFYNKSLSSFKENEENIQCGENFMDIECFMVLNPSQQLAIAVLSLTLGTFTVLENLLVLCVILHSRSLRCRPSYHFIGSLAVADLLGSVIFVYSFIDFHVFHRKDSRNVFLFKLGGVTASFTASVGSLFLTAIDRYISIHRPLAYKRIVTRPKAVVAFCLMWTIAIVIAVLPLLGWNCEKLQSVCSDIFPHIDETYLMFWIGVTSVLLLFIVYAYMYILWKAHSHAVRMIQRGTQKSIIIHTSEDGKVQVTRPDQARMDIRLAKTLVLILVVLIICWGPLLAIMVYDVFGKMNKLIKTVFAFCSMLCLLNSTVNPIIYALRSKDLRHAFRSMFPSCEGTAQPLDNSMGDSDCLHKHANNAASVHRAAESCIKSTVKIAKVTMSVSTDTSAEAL

For orientation: Ki means a dissociation constant, usually derived from enzyme kinetics or from competition with a known ligand. In the case of `CCn1c2ccccc2c2cc(NC(=O)CCc3nc(-c4ccc(F)cc4Br)no3)ccc21` [Compound 2, 3-[3-(2-Bromo-4-fluorophenyl)-1,2,4-oxadiazol-5-yl]-N-(9-ethyl-9H-carbazol-3-yl)propanamide], the chromatographic logD in data set [1] (gradient 10% to 90% MeCN/20 mM NH4OAc, n = 3 to 6, read-out: logD Reposil-Pur C18-AQ Gradient) is 4.35 ± 0.11; in data set [1] (isocratic 52.5% MeCN/20 mM NH4OAc, n = 3 to 6, read-out: logD Prodigy 5 μ C8 Isocratic), 4.4 ± 0.35; in data set [1] (isocratic 60% MeCN/20 mM NH4OAc, n = 3 to 6, read-out: logD Reposil-Pur C18-AQ Isocratic) it was 4.87 ± 0.36. The Ki was 4.27 ± 3.03 nM at human CB2R and more than 1000 nM at human CB1R (setting [2]).

As to `O=C(CCc1nc(-c2ccc(F)cc2Br)no1)Nc1ccc2c(c1)c1ccccc1n2CCF` [Compound 1, 3-[3-(2-Bromo-4-fluorophenyl)-1,2,4-oxadiazol-5-yl]-N-[9-(2-fluoroethyl)-9H-carbazol-3-yl]propanamide], the chromatographic logD was determined as 3.86 ± 0.33 in data set [1] (Prodigy 5 μm C8 column, isocratic 52.5% MeCN/20 mM NH4OAc, n = 3 to 6, read-out: logD Prodigy 5 μ C8 Isocratic); 3.82 ± 0.1 in data set [1] (Reprosil-Pur C18-AQ column, gradient 10% to 90% MeCN/20 mM NH4OAc, n = 3 to 6, read-out: logD Reposil-Pur C18-AQ Gradient); 4.21 ± 0.32 in data set [1] (Reprosil-Pur C18-AQ column, isocratic 60% MeCN/20 mM NH4OAc, n = 3 to 6, read-out: logD Reposil-Pur C18-AQ Isocratic). In addition, the figures for the Ki on human CB2R and on human CB1R were 2.32 ± 2.12 nM and more than 1000 nM, respectively.

One may read the melting point as the temperature of the solid-liquid transition. `O=C(O)CCc1nc(-c2ccc(F)cc2Br)no1` [Compound 10, 3-(3-(2-Bromo-4-fluorophenyl)-1,2,4-oxadiazol-5-yl)propanoic acid] yielded a melting point of 104 °C. Also, at human CB2R ([3H]CP55,940 displacement, hCB2R CHO cells, read-out: Ki CB2R), the Ki was more than 1000 nM. In addition, the Ki at human CB1R (setting [2]) is more than 1000 nM.

(Values after article PMC3856494, “Radiofluorination and biological evaluation of N-aryl-oxadiazolyl-propionamides as potential radioligands for PET imaging of cannabinoid CB2 receptors” (Organic and Medicinal Chemistry Letters, 2013).)
